Reference: ChEMBL document CHEMBL1137314, “Small-molecule inhibitors of the MDM2-p53 protein-protein interaction based on an isoindolinone scaffold” (J Med Chem, 2006)
Activity calls are given as the source filed them. The calls are words filed in the database; no cut-off is given here.

Experiments:
[1] = target: Tumour suppressor p53/oncoprotein Mdm2 (Homo sapiens, UniProt Q00987); assay: Inhibition of p53-MDM2 interaction by ELISA; type: protein assay
[2] = target: Tumour suppressor p53/oncoprotein Mdm2 (Homo sapiens) (UniProt P04637+Q00987); assay: Induction of p53 dependent transcription in SJSA cell line by reporter gene assay; type: functional, cell-based; conditions: SJSA-1
SJSA-1 [3] = assay: Increase of MDM2 protein level in SJSA cell line by Western blot analysis; type: functional, cell-based; conditions: Homo sapiens
SJSA-1 [4] = assay: Increase of p53 protein level in SJSA cell line by Western blot analysis; type: functional, cell-based; conditions: Homo sapiens
SJSA-1 [5] = assay: Increase of p21 protein level in SJSA cell line by Western blot analysis; type: functional, cell-based; conditions: Homo sapiens

Sequence of Tumour suppressor p53/oncoprotein Mdm2 (P04637 whole entry): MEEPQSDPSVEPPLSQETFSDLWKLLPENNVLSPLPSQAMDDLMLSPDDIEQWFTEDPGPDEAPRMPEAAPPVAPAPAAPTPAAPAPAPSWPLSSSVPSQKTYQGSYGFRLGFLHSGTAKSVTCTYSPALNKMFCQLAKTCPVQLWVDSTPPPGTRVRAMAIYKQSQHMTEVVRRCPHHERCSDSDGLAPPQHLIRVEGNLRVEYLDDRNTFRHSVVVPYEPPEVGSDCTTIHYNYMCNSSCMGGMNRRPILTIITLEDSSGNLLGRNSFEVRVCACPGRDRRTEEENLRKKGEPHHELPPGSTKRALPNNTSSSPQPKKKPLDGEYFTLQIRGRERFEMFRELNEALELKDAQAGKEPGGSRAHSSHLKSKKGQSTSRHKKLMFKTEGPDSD
Sequence of Tumour suppressor p53/oncoprotein Mdm2 (Q00987 whole entry): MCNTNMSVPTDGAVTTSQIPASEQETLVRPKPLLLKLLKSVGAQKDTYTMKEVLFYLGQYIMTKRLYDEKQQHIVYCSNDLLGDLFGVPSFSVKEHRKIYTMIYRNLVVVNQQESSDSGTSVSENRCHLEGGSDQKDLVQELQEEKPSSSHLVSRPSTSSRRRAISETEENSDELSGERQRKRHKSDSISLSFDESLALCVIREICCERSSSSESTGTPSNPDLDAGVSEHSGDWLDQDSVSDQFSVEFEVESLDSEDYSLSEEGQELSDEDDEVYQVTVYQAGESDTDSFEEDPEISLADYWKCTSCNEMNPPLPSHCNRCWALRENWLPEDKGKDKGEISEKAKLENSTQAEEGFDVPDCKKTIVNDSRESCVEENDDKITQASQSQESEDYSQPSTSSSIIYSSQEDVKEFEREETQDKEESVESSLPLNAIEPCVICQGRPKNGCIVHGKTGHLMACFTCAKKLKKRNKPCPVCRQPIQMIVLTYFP
Sequence of Tumour suppressor p53/oncoprotein Mdm2 (Homo sapiens) (P04637 whole entry, looked up): as the sequence (P04637 whole entry) above
Sequence of Tumour suppressor p53/oncoprotein Mdm2 (Homo sapiens) (Q00987 whole entry, looked up): as the sequence (Q00987 whole entry) above

## CC(=O)NCCOC1(c2ccccc2)c2ccccc2C(=O)N1Cc1ccccc1 (stereo unspecified)
[1]
  IC50: 281 µM

## CCCNC1(c2ccccc2)c2ccccc2C(=O)N1Cc1ccccc1 (stereo unspecified)
[1]
  IC50: 200 µM

## C=CCNC(=S)NCCOC1(c2ccccc2)c2ccccc2C(=O)N1Cc1ccccc1 (stereo unspecified)
[1]
  IC50: 408 µM

## CCCOC1(c2ccccc2)c2ccccc2C(=O)N1Cc1ccccc1 (stereo unspecified)
[1]
  IC50: > 200 µM

## C[Si](C)(C)CCOCOc1ccc(C2(OCCCO)c3ccccc3C(=O)N2Cc2ccccc2)cc1 (stereo unspecified)
[1]
  IC50: 476 µM

## CCCN1C(=O)c2ccccc2C1(OCCS(C)(=O)=O)c1ccc(C(C)(C)C)cc1 (stereo unspecified)
[1]
  IC50: 290 µM

## CCCOC1(c2ccccc2)c2ccccc2C(=O)N1[C@H](C(=O)OC)c1ccc(O)cc1 (stereo partly specified)
[1]
  IC50: 90 µM

## CCOC(=O)CCC(NC1(c2ccccc2)c2ccccc2C(=O)N1Cc1ccccc1)C(=O)OCC (stereo unspecified)
[1]
  IC50: > 500 µM

## CN(CCOC1(c2ccccc2)c2ccccc2C(=O)N1Cc1ccccc1)c1ccc(C=O)cc1 (stereo unspecified)
[1]
  IC50: 191 µM

## COC(=O)COC1(c2ccccc2)c2ccccc2C(=O)N1Cc1ccccc1 (stereo unspecified)
[1]
  IC50: > 500 µM

## O=C1c2ccccc2C(OCc2ccco2)(c2ccccc2)N1Cc1ccccc1 (stereo unspecified)
[1]
  IC50: > 500 µM

## CC(=O)NCCNC1(c2ccccc2)c2ccccc2C(=O)N1Cc1ccccc1 (stereo unspecified)
[1]
  IC50: > 500 µM

## CC(NC1(c2ccccc2)c2ccccc2C(=O)N1Cc1ccccc1)C(O)c1ccc(O)cc1 (stereo unspecified)
[1]
  IC50: 185 µM

## C=CC(=O)OCCOC1(c2ccccc2)c2ccccc2C(=O)N1Cc1ccccc1 (stereo unspecified)
[1]
  IC50: 439 µM

## O=C1c2ccccc2C(NCCO)(c2ccccc2)N1Cc1ccccc1 (stereo unspecified)
[1]
  IC50: > 500 µM

## CCCCc1ncc(COC2(c3ccccc3)c3ccccc3C(=O)N2Cc2ccccc2)[nH]1 (stereo unspecified)
[1]
  IC50: 78 µM

## O=C1c2ccccc2C(OCCN2CCOCC2)(c2ccccc2)N1Cc1ccccc1 (stereo unspecified)
[1]
  IC50: > 500 µM

## NC(=O)COC1(c2ccccc2)c2ccccc2C(=O)N1Cc1ccccc1 (stereo unspecified)
[1]
  IC50: > 500 µM

## O=C1c2ccccc2C(OCCCO)(c2ccc(Cl)cc2)N1Cc1ccccc1 (stereo unspecified)
[2]
  Activity: Dose-dependent effect
SJSA-1 [3]
  Activity: Dose-dependent effect
SJSA-1 [4]
  Activity: inactive
SJSA-1 [5]
  Activity: Dose-dependent effect

## Cc1ccc([N+](=O)[O-])c(COC2(c3ccccc3)c3ccccc3C(=O)N2Cc2ccccc2)c1 (stereo unspecified)
[1]
  IC50: 232 µM

## COC(=O)C(Cc1ccc(O)cc1)N1C(=O)c2ccccc2C1(OCCOC(C)=O)c1ccccc1 (stereo unspecified)
[1]
  IC50: 380 µM

## O=C1c2ccccc2C(OCCOc2ccccc2O)(c2ccccc2)N1Cc1ccccc1 (stereo unspecified)
[1]
  IC50: 221 µM

## O=C1CCC(=O)N1CCOC1(c2ccccc2)c2ccccc2C(=O)N1Cc1ccccc1 (stereo unspecified)
[1]
  IC50: 284 µM

## CCCN1C(=O)c2ccccc2C1(OCc1cc([N+](=O)[O-])c(C)c([N+](=O)[O-])c1)c1ccc(OCOCC[Si](C)(C)C)cc1 (stereo unspecified)
[1]
  IC50: 103 µM

## COc1ccc([C@@H](O)COC2(c3ccccc3)c3ccccc3C(=O)N2Cc2ccco2)cc1 (stereo partly specified)
[1]
  IC50: 181 µM

## Cc1cccc(N(CCC#N)CCOC2(c3ccccc3)c3ccccc3C(=O)N2Cc2ccccc2)c1 (stereo unspecified)
[1]
  IC50: 243 µM

## O=C1c2ccccc2C(OCc2ccc(Cl)c([N+](=O)[O-])c2)(c2ccccc2)N1Cc1ccccc1 (stereo unspecified)
[1]
  IC50: 206 µM

## CCCN1C(=O)c2ccccc2C1(OCCNC(=O)c1ccccc1O)c1ccc(C(C)(C)C)cc1 (stereo unspecified)
[1]
  IC50: 70.1 µM

## CCCN1C(=O)c2ccccc2C1(OCc1cc2c(cc1[N+](=O)[O-])OCO2)c1ccc(C(C)(C)C)cc1 (stereo unspecified)
[1]
  IC50: 70.2 µM

## CCCN1C(=O)c2ccccc2C1(OCc1cc(OC)c(O)c(OC)c1)c1ccc(Cl)cc1 (stereo unspecified)
[2]
  Activity: Dose-dependent effect
SJSA-1 [3]
  Activity: Dose-dependent effect
SJSA-1 [4]
  Activity: inactive
SJSA-1 [5]
  Activity: Dose-dependent effect

## O=C1CCCN1CCOC1(c2ccccc2)c2ccccc2C(=O)N1Cc1ccccc1 (stereo unspecified)
[1]
  IC50: 393 µM

## COC(=O)C(Cc1ccc(O)cc1)N1C(=O)c2ccccc2C1(OCCN(CCC#N)c1ccccc1)c1ccccc1 (stereo unspecified)
[1]
  IC50: 88 µM

## O=C1c2ccccc2C(=O)N1CCCOC1(c2ccccc2)c2ccccc2C(=O)N1Cc1ccccc1 (stereo unspecified)
[1]
  IC50: 189 µM

## COC(=O)CCNC1(c2ccccc2)c2ccccc2C(=O)N1Cc1ccccc1 (stereo unspecified)
[1]
  IC50: > 500 µM

## COc1ccc(CCOC2(c3ccccc3)c3ccccc3C(=O)N2Cc2ccccc2)cc1OC (stereo unspecified)
[1]
  IC50: 311 µM

## O=C(NCCOC1(c2ccccc2)c2ccccc2C(=O)N1Cc1ccccc1)c1ccc(O)cc1O (stereo unspecified)
[1]
  IC50: 96 µM

## COC(=O)[C@@H](C)COC1(c2ccccc2)c2ccccc2C(=O)N1Cc1ccccc1 (stereo partly specified)
[1]
  IC50: 330 µM

## O=C1c2ccccc2C(NC(CO)C(O)c2ccccc2)(c2ccccc2)N1Cc1ccccc1 (stereo unspecified)
[1]
  IC50: 85 µM

## CCCOC1(c2ccccc2)c2ccccc2C(=O)N1[C@@H](CCCCN)C(=O)OC (stereo partly specified)
[1]
  IC50: 79 µM

## CCCOC1(c2ccccc2)c2ccccc2C(=O)N1CCCC(OC)OC (stereo unspecified)
[1]
  IC50: 70 µM

## O=C1c2ccccc2C(OCCS(=O)(=O)O)(c2ccccc2)N1Cc1ccccc1 (stereo unspecified)
[1]
  IC50: 345 µM

## CCCOC1(c2ccccc2)c2ccccc2C(=O)N1CCO (stereo unspecified)
[1]
  IC50: > 500 µM

## O=C(NCCOC1(c2ccccc2)c2ccccc2C(=O)N1Cc1ccccc1)c1ccncc1 (stereo unspecified)
[1]
  IC50: 278 µM

## O=C1c2ccccc2C(NCC(O)c2cccc(O)c2)(c2ccccc2)N1Cc1ccccc1 (stereo unspecified)
[1]
  IC50: 84 µM

## C=C(C)C(=O)OCCNC1(c2ccccc2)c2ccccc2C(=O)N1Cc1ccccc1 (stereo unspecified)
[1]
  IC50: 353 µM

## N#CCCNC1(c2ccccc2)c2ccccc2C(=O)N1Cc1ccccc1 (stereo unspecified)
[1]
  IC50: 190 µM

## O=C1c2ccccc2C(NCC(O)c2ccc(O)cc2)(c2ccccc2)N1Cc1ccccc1 (stereo unspecified)
[1]
  IC50: 227 µM

## CCCN1C(=O)c2ccccc2C1(OCCN1CCNC1=O)c1ccc(C(C)(C)C)cc1 (stereo unspecified)
[1]
  IC50: 74.3 µM

## O=C1c2ccccc2C(N[C@@H](CO)[C@@H](O)c2ccccc2)(c2ccccc2)N1Cc1ccccc1 (stereo partly specified)
[1]
  IC50: 85 µM

## CCCN1C(=O)c2ccccc2C1(OCCc1ccc(O)cc1)c1ccc(C(C)(C)C)cc1 (stereo unspecified)
[1]
  IC50: 69.7 µM

## O=C1c2ccccc2C(OC/C=C/c2ccccc2)(c2ccccc2)N1Cc1ccccc1 (stereo unspecified)
[1]
  IC50: 334 µM

## COc1ccc([C@@H](O)COC2(c3ccccc3)c3ccccc3C(=O)N2CCCO)cc1 (stereo partly specified)
[1]
  IC50: 326 µM

## COCCOC1(c2ccccc2)c2ccccc2C(=O)N1Cc1ccccc1 (stereo unspecified)
[1]
  IC50: 490 µM

## O=C1c2ccccc2C(OCCc2ccccc2)(c2ccccc2)N1Cc1ccccc1 (stereo unspecified)
[1]
  IC50: > 500 µM

## O=C1c2ccccc2C(OCc2cccc(O)c2)(c2ccccc2)N1Cc1ccccc1 (stereo unspecified)
[1]
  IC50: 58 µM

## CCCN1C(=O)c2ccccc2C1(OCc1[nH]cnc1C)c1ccc(C(C)(C)C)cc1 (stereo unspecified)
[1]
  IC50: 64.3 µM

## O=C1c2ccccc2C(OCc2ccc(O)cc2)(c2ccccc2)N1Cc1ccccc1 (stereo unspecified)
[1]
  IC50: 79 µM

## CCCOC1(c2ccccc2)c2ccccc2C(=O)N1Cc1ccc(OC)cc1 (stereo unspecified)
[1]
  IC50: 413 µM

## O=Cc1ccc(COC2(c3ccccc3)c3ccccc3C(=O)N2Cc2ccccc2)o1 (stereo unspecified)
[1]
  IC50: 97 µM

## COC(=O)C(Cc1ccc(O)cc1)N1C(=O)c2ccccc2C1(OCCn1c([N+](=O)[O-])cnc1C)c1ccccc1 (stereo unspecified)
[1]
  IC50: 275 µM

## O=C1c2ccccc2C(=O)N1CCOC1(c2ccccc2)c2ccccc2C(=O)N1Cc1ccccc1 (stereo unspecified)
[1]
  IC50: 152 µM

## O=C1c2ccccc2C(OCCNC(=O)C(F)(F)F)(c2ccccc2)N1Cc1ccccc1 (stereo unspecified)
[1]
  IC50: 409 µM

## C=C(C)C(=O)OCCN1C(=O)c2ccccc2C1(N[C@@H](CO)[C@@H](O)c1ccccc1)c1ccccc1 (stereo partly specified)
[1]
  IC50: 103 µM

## CCCOC1(c2ccccc2)c2ccccc2C(=O)N1CCC (stereo unspecified)
[1]
  IC50: > 200 µM

## O=C1c2ccccc2C(OCc2cccc([N+](=O)[O-])c2)(c2ccccc2)N1Cc1ccccc1 (stereo unspecified)
[1]
  IC50: 284 µM
